Results published in ChEMBL document CHEMBL3301361, “Experimental in vitro DMPK and physicochemical data on a set of publicly disclosed compounds”.
Values after ≈ are worked out from the molar mass of the structure shown.

Columns and labels:
[1] = in vitro; conditions: SD, HW or BN, rat, plasma
[2] = in vitro; conditions: Beagle, dog, plasma
[3] = in vitro; conditions: human, plasma
[4] = physchem
[5] = physchem; conditions: octan-1-ol/water
[6] = in vitro; conditions: human
[7] = in vitro; conditions: hepatocytes
[8] = in vitro; conditions: human, hepatocytes
[9] = physchem; conditions: pH 7.4 buffer

| SMILES | fraction unbound at 5 h [1] | fraction unbound at 5 h [2] | fraction unbound at 5 h ([3]; PPB) | logD ([5]; pH 7.4, LogD7.4) | other results |
| --- | --- | --- | --- | --- | --- |
| NC(=O)c1cnc(N[C@H]2CCCNC2)c2cc(-c3ccccc3)sc12 | 0.224 | 0.0366 | – | – | – |
| O=C(NC12CC3CC(CC(C3)C1)C2)OCCNC1CCCCC1 | 0.129 | 0.16 | 0.11 | – | – |
| CCOc1cc2nnc(C(N)=O)c(Nc3ccc(C)cc3F)c2cc1N1CCN(C)CC1 | 0.0633 | 0.062 | 0.016 | – | – |
| CNCC[C@@H](Oc1cc(OC)ccc1C#N)c1ccccc1 | – | – | – | 0.87 | pKa [4]: 10.2; microsomal CLint ([6]; liver microsomes): 26 µL/min/mg; hepatocyte CLint [7]: 142 µL/min/1e6 cells |
| CN(C)CCN1CCN(c2cc(C(=O)NC[C@H]3CC[C@H](CNC(=O)OC(C)(C)C)CC3)c3ccccc3n2)CC1 | – | 0.0293 | – | – | – |
| Cc1cc(-c2ccc(Cl)c(C(=O)NCC3(O)CCCCCC3)c2)nn1C[C@H](O)CN | 0.309 | – | 0.304 | 0.57 | pKa [4]: 8.6; microsomal CLint ([6]; liver microsomes): < 3 µL/min/mg; hepatocyte CLint [7]: < 3 µL/min/1e6 cells; hepatocyte CLint [8]: < 3 µL/min/1e6 cells |
| Cc1c(Sc2ccc(Cl)cc2)c2c(S(C)(=O)=O)cccc2n1CC(=O)O | – | 0.0256 | 0.035 | 0.58 | microsomal CLint ([6]; microsomes): < 3 µL/min/mg |
| Cc1c(CC(=O)O)c2cc(F)ccc2n1S(=O)(=O)c1ccc(S(C)(=O)=O)cc1 | – | 0.0521 | – | -0.44 | – |
| Cc1cc(C(C)Nc2ccccc2)c2nc(N3CCOCC3)cc(=O)n2c1 (stereo not given) | 0.0467 | 0.0606 | 0.0532 | – | – |
| NC1=Nc2ccccc2Sc2cccc(F)c21 | – | – | 0.0568 | – | pKa [4]: 6.5; hepatocyte CLint [8]: 13.2 µL/min/1e6 cells |
| NC1=Nc2ccccc2Sc2ccccc21 | – | – | – | – | pKa [4]: 7.2; hepatocyte CLint [8]: 7.94 µL/min/1e6 cells |
| CC(C)Cn1c(=O)n(C)c(=O)c2c(C(=O)N3CC[C@@H](O)C3)c(Cc3c[nH]c4ccccc34)sc21 | – | 0.443 | 0.0854 | 2.35 | microsomal CLint ([6]; liver microsomes): 107 µL/min/mg |
| Cc1cc(F)ccc1Oc1cccc2c(=O)cc(N3CCOCC3)[nH]c12 | 0.0854 | 0.0088 | – | – | – |
| COc1ncc(-c2cccc3c2C[C@H](NC(=O)c2ccc(COCC(F)(F)F)nc2)CO3)cn1 | – | 0.0705 | 0.0366 | – | solubility thermodynamic [9]: 158 µM (≈ 75.2 µg/mL) |
| Cc1ccc2c(c1)c(-c1cc(C)nc3ccccc13)c(C)n2CC(=O)O | – | 0.0133 | 0.004 | 2.88 | microsomal CLint ([6]; liver microsomes): < 3 µL/min/mg |
| COc1ccc2c(c1)c(CC(=O)O)c(C)n2-c1ccnc2cc(Cl)ccc12 | – | 0.0183 | 0.0099 | 1.68 | microsomal CLint ([6]; liver microsomes): < 3 µL/min/mg |
| N#Cc1ccccc1C[C@@H](C(=O)O)N1CCC(CN2CCC(Oc3ccc(Cl)c(Cl)c3)CC2)CC1 | 0.224 | 0.0661 | – | – | solubility thermodynamic [9]: 288 µM (≈ 149 µg/mL) |
| N#Cc1ccc2ccc(=O)n(CCN3CC[C@H](NCc4cc5c(cn4)OCCO5)[C@H](O)C3)c2c1 | 0.734 | 0.608 | – | 0.46 | – |
| N#Cc1ccc2ccc(=O)n(CCN3CC[C@@H](NCc4cc5c(cn4)OCCO5)[C@@H](O)C3)c2c1 | 0.471 | 0.602 | – | 0.45 | – |

| SMILES | fraction unbound at 5 h [1] | fraction unbound at 5 h [2] | fraction unbound at 5 h ([3]; PPB) | logD ([5]; pH 7.4, LogD7.4) | other results |
| --- | --- | --- | --- | --- | --- |
| C[C@H]1CN(c2cc(N(CCO)Cc3cccc4ccccc34)[nH]c(=O)n2)CCO1 | 0.0948 | 0.299 | 0.16 | – | – |
| Cc1c(Cl)ccc(OC2CCN(C3CCN(C(=O)c4cccc(S(C)(=O)=O)c4)CC3)CC2)c1Cl | – | 0.035 | 0.035 | 3.33 | microsomal CLint ([6]; liver microsomes): 13.5 µL/min/mg |
| COc1ccc(NC(=O)c2ccc(Cn3ccnn3)c3ccccc23)c(C(=O)NCC2CCOCC2)n1 | – | 0.028 | – | – | – |
| C[S+]([O-])Cc1ccc(C(=O)Nc2ccc(OCCOCCO)nc2C(=O)NCC2CCC2)c2ccccc12 (stereo not given) | 0.0343 | 0.0581 | 0.0499 | – | – |
| CC(C)(C)NC(=O)NCCN1CCCC(NC(=O)c2cc(Cl)cc(Cl)c2)C1 (stereo not given) | 0.0391 | 0.0633 | 0.028 | – | – |
| CC(C)(C)NC(=O)NCCN1CCC(O)(CNC(=O)c2cc(Cl)cc(Cl)c2)CC1 | 0.232 | 0.36 | 0.232 | – | – |
| O=C(CN1CCN(CCC2CCOCC2)CC1)NC12CC3CC(CC(C3)C1)C2 | 0.392 | 0.431 | 0.529 | – | – |
| CC(C)(C)S(=O)(=O)CCCN1CCN(CC(=O)NC23CC4CC(CC(C4)C2)C3)CC1 | 0.309 | 0.289 | 0.349 | – | – |
| CC(C)(C)NC(=O)NCCN1CCN(CC(=O)Nc2cc(Cl)cc(Cl)c2)CC1 | – | 0.0556 | 0.0521 | – | – |
| CC(C)(C)NC(=O)NCCN1CCC(CNC(=O)c2cc(Cl)cc(Cl)c2)CC1 | 0.17 | 0.11 | 0.11 | – | – |
| CC(C)(C)NC(=O)NCCN1CCOC(CNC(=O)c2cc(Cl)cc(Cl)c2)C1 (stereo not given) | 0.0676 | 0.0818 | 0.0606 | – | – |
| CC(C)(C)NC(=O)NCCN1CCC(CNC(=O)c2cc(Cl)cc(Cl)c2)C1 (stereo not given) | 0.139 | 0.0909 | 0.0968 | – | – |
| CC(C)c1nc2ccc(-c3ccc(F)cc3)cc2c(=O)n1C[C@H]1CCCN(C(C)C)C1 | – | – | – | 3.6 | pKa [4]: 9.91; solubility thermodynamic [9]: 537 µM (≈ 226 µg/mL); microsomal CLint ([6]; microsomes): 12.9 µL/min/mg; hepatocyte CLint [7]: 29.5 µL/min/1e6 cells |
| Cc1nc2ccc(-c3ccc(Cl)cc3)cc2c(=O)n1C[C@H]1CCCN(C(C)C)C1 | – | – | – | 3.3 | pKa [4]: 10.1; microsomal CLint ([6]; microsomes): < 3 µL/min/mg; hepatocyte CLint [7]: 3.8 µL/min/1e6 cells |
| OC[C@H]1C[C@@H](n2nnc3c(N[C@@H]4C[C@H]4c4ccc(F)c(F)c4)nc(SCCC(F)(F)F)nc32)[C@H](O)[C@@H]1O | – | 0.002 | 0.0015 | 3.99 | solubility thermodynamic [9]: 7.2 µM (≈ 3.93 µg/mL) |
| OCCO[C@H]1C[C@@H](n2nnc3c(N[C@@H]4C[C@H]4c4ccc(F)c(F)c4)nc(SCCC(F)(F)F)nc32)[C@H](O)[C@@H]1O | – | 0.0046 | 0.0015 | 4.17 | – |
| C[C@H](CO)Nc1nc(SCc2cccc(F)c2F)nc2[nH]c(=O)cnc12 | – | 0.028 | 0.0114 | 3.1 | solubility thermodynamic [9]: 3.5 µM (≈ 1.33 µg/mL) |
| CC(C)Cc1nn(C)c(=O)c2c(SCCCO)n(Cc3cccc4ccccc34)cc12 | – | 0.0013 | 0.0027 | – | – |
| O=C(NCC12CC3CC(CC(C3)C1)C2)c1cc(CN2C[C@@H]3C[C@H]2CN3)ccc1Cl | – | 0.114 | 0.0968 | 1.45 | microsomal CLint ([6]; liver microsomes): 13 µL/min/mg |

| SMILES | fraction unbound at 5 h [1] | fraction unbound at 5 h [2] | fraction unbound at 5 h ([3]; PPB) | logD ([5]; pH 7.4, LogD7.4) | other results |
| --- | --- | --- | --- | --- | --- |
| C[C@H](CO)Nc1nc(SCc2cccc(F)c2F)nc2nc(N)sc12 | – | 0.0366 | 0.0196 | 3.29 | solubility thermodynamic [9]: 8.1 µM (≈ 3.11 µg/mL) |
| CCCSc1nc(N[C@@H]2C[C@H]2c2ccccc2)c2nnn([C@@H]3C[C@H](O)[C@@H](O)[C@H]3O)c2n1 | – | 0.0066 | – | 3.97 | solubility thermodynamic [9]: 1.1 µM (≈ 0.487 µg/mL); microsomal CLint ([6]; liver microsomes): < 3 µL/min/mg |
| CCCCNc1nc(SCCC)nc2c1nnn2[C@@H]1C[C@H](CO)[C@@H](O)[C@H]1O | – | 0.0467 | 0.024 | 3.07 | microsomal CLint ([6]; microsomes): 6 µL/min/mg |
| C[C@H](CO)Nc1nc(SCc2cccc(Cl)c2F)nc2[nH]c(=O)sc12 | – | 0.0005 | – | 3.53 | solubility thermodynamic [9]: 1 µM (≈ 0.401 µg/mL) |
| Cc1oc(CN2CCNCC2)cc1C(=O)NCC12CC3CC(CC(C3)C1)C2 | – | 0.437 | 0.148 | 1.03 | – |
| CCOc1cc2ncc(C(N)=O)c(Nc3cc(C)ccc3F)c2cc1N1CCN(C)CC1 | 0.107 | 0.365 | – | – | – |
| OC[C@H](Nc1ncc(Cl)c(Nc2cc(C3CC3)n[nH]2)n1)c1ccc(F)cc1 | – | 0.0499 | 0.0437 | 3.75 | – |
| CCOc1cc2ncc(C(N)=O)c(Nc3cccc(Cl)c3F)c2cc1N1CCN(C)CC1 | 0.134 | 0.204 | 0.0705 | – | – |
| CCCSc1nc(N)c2ncn([C@@H]3O[C@H](CO)[C@@H](O)[C@H]3O)c2n1 | – | 0.591 | 0.483 | – | – |
| Cc1cc(Nc2nc(N[C@@H](C)c3ccc(F)cn3)c(C#N)nc2C)n[nH]1 | 0.19 | 0.262 | 0.173 | – | – |
| CC(C)Cn1c(=O)n(C)c(=O)c2c(SCCCO)n(Cc3cccc4ccccc34)cc21 | – | 0.0034 | – | 4.36 | – |
| CC(NC(C)(C)C)C(=O)c1cccc(Cl)c1 (stereo not given) [BUPROPION] | – | – | – | – | pKa [4]: 8.4; logD ([5]; pH 7.4): 2.12; fraction unbound at 5 h [3]: 0.54; microsomal CLint ([6]; microsomes): 12 µL/min/mg; hepatocyte CLint [7]: 72.4 µL/min/1e6 cells |
| CCCNC(=O)NS(=O)(=O)c1ccc(Cl)cc1 [CHLORPROPAMIDE] | – | 0.142 | 0.04 | -0.33 | – |
| CNc1cc2[nH]c(=O)n(-c3ccc(NC(=O)NS(=O)(=O)c4ccc(Cl)s4)cc3)c(=O)c2cc1F [ELINOGREL] | – | 0.0069 | 0.0042 | – | – |
| CC(C)n1c(/C=C/C(O)CC(O)CC(=O)O)c(-c2ccc(F)cc2)c2ccccc21 (stereo not given) [FLUVASTATIN] | – | 0.0028 | – | – | fraction unbound at 5 h [3]: 0.0048 |
| CCCc1nc(C(C)(C)O)c(C(=O)O)n1Cc1ccc(-c2ccccc2-c2nnn[nH]2)cc1 [OLMESARTAN] | – | 0.0119 | – | – | – |
| CCNC(=O)[C@H]1C[C@@](F)(c2ccc(CN3CCCC3)c(F)c2)C1 [PF-03654746] | 0.772 | 0.807 | – | – | – |
| CNC(=C[N+](=O)[O-])NCCSCc1ccc(CN(C)C)o1 [RANITIDINE] | – | 0.711 | – | -0.95 | – |
